# Data published in patent US20050208549A1, “Testing endosymbiont cellular organelles and compounds identifiable therewith” (priority 2000, published 2005).
# How the values were obtained:
# [1] = tested on: peripheral blood mononuclear cells (PBMCs); test: NASBA ratio of mitochondrial DNA to chromosomal DNA in cultured PBMCs; format: cell-based; conditions: culture period of five days, 6 μM and 60 μM
# Method: (§1) In Table 1, the primers and probes used in the examples are summarized. Standard NASBA nucleic acid amplification reactions were performed in a 20 μl reaction volume and contained: 40 mM Tris-pH 8.5, 70 mM KCl, 12 mM MgCl2, 5 mM dithiothreitol, 1 mM dNTPs (each), 2 mM rNTPs (each), 0.2 μM primer (each), 0.05 μM molecular beacon, 375 mM sorbitol, 0.105 μg/μl bovine serum albumin, 6.4 units AMV RT, 32 units T7 RNA polymerase, 0.08 units RNAse H and input nucleic acid. The complete mixture, except the enzymes, sorbitol and/or bovine serum albumin was, prior to adding the enzyme mixture, heated to 65° C. for two minutes in order to denature any secondary structure in the RNA and to allow the primers to anneal. After cooling the mixture to 41° C., the enzymes were added. The amplification took place at 41° C. for 90 minutes in a fluorimeter (CytoFluor 2000) and the fluorescent signal was measured every minute (using the filter set 530/25 nm and 485/30 nm). […]
# (§2) To achieve quantification, a dilution series of target sequences for a particular primer set was amplified and the time points at which the reactions became positive (the time to positivity, TTP) were plotted against the input amounts of nucleic acid. This way a calibration curve was created that could be used to read TTP values of reactions with unknown amounts of input and deduce the input amount. […]
# [2] = cited from earlier work
# Fibroblast cells = test: NASBA ratio of mitochondrial RNA to mitochondrial DNA in cultured fibroblast cells; format: cell-based; conditions: culture period of four weeks, antiviral drugs at 3 μM and 30 μM
# Method: as §1, §2
compound,measurement,setting,value
Cc1cn([C@H]2C[C@H](N=[N+]=[N-])[C@@H](CO)O2)c(=O)[nH]c1=O [AZT],change in ratio of mitochondrial DNA to chromosomal DNA,[1],no measurable change
same,"Rate (%) of mitochondrial toxicity, affected organ Heart",[2]; Dilated cardio-myopathy,Rare
same,"Rate (%) of mitochondrial toxicity, affected organ Muscle","[2]; Fatigue, myalgia, proximal weakness, wasting, Creatine kinase ↑",17%
same,change in mitochondrial RNA to mitochondrial DNA ratio,Fibroblast cells,no measurable change
